A short description of this series: Aqueous solubility of compound. To be noted: buffer. In kind it is physicochemical.

Where a SMILES comes first, the peptide text is derived from it. Bridges are numbered along the chain shown (N, C = ends). The star is where a group is joined. Acetyl(2-naphthyloxy) = O=C(COc1ccc2ccccc2c1)*

Take `CC[C@H](C)[C@H](NC(=O)[C@H](CCCNC(=N)N)NC(=O)[C@H](CO)NC(=O)[C@H](Cc1ccc(O)cc1)NC(=O)[C@H](CCCNC(=N)N)NC(=O)[C@@H]1CSSC[C@H](NC(=O)COc2ccc3ccccc3c2)C(=O)N[C@@H](CCC(N)=O)C(=O)N[C@@H](CC(N)=O)C(=O)N1)C(=O)N[C@@H](CCC(=O)O)C(=O)N[C@@H](Cc1c[nH]c2ccccc12)C(=O)N[C@H](C(=O)N[C@@H](CCCCN)C(=O)N[C@H](C(=O)N[C@@H](CCC(N)=O)C(=O)N[C@H](C(=O)N[C@H](C(=O)N[C@@H](CO)C(=O)N[C@@H](CCCCN)C(=O)N[C@@H](CC(C)C)C(=O)N[C@@H](CCCNC(=N)N)C(=O)N[C@@H](CC(C)C)C(N)=O)[C@@H](C)CC)[C@@H](C)CC)[C@@H](C)CC)[C@@H](C)CC` ({Acetyl(2-naphthyloxy)}-CQNCRYSRIEWIKIQIISKLRL-NH2; disulfide 1-4): the solubility entry was “Insoluble”.

Values taken from ChEMBL document CHEMBL4480415, “Design and synthesis of potent myostatin inhibitory cyclic peptides” (Bioorg Med Chem, 2019).
